Literature values in patent US20210360917A1, “CUTICLE SUPPLEMENT FOR PLANT PRODUCTION” (OREGON STATE UNIVERSITY, priority 2018, published 2021).

System: spotted wing Drosophila
Settings: chemical alternative, source not given

CCOC(=O)CC(SP(=S)(OC)OC)C(=O)OCC (stereo not shown) [malathion]
reduction of egg laying: about 50%
